The record followed here is BindingDB's records for doi:10.1016/j.bmcl.2006.05.060 (University of Kentucky, 2006).

The term Ki denotes a dissociation constant, usually derived from enzyme kinetics or from competition with a known ligand. A high value points to a looser hold on the target.

Assay [1] can be described thus: Displacement of radiolabeled NalBzOH from kappa3 opioid receptor in Hartley guinea pig brain.
The nature of assay [2]: Displacement of radiolabeled DPDPE-Cl from delta opioid receptor in Hartley guinea pig brain.

For `C[N+]1(C)CC[C@]23c4c5ccc(OC(=O)c6ccccc6)c4O[C@H]2[C@@H](OS(=O)(=O)[O-])C=C[C@H]3[C@H]1C5` [MM3B6S], the inhibitory constant (Ki) in assay [1] and in assay [2] was over 10000 nM in each case. Take `CCC(=O)Oc1ccc2c3c1O[C@H]1[C@@H](OS(=O)(=O)O)C=C[C@H]4[C@@H](C2)N(C)CC[C@@]341` [M3Pr6S]: the Ki in assay [1] worked out at 20 nM; in assay [2], 40 nM. Taken in the same sequence, the figures for `COc1ccc2c3c1O[C@H]1[C@@H](OS(=O)(=O)O)CC[C@H]4[C@@H](C2)N(C)CC[C@@]341` [DC6S] were 760 nM and 1150 nM. Turning to `CN1CC[C@]23c4c5ccc(OC(=O)c6ccccc6)c4O[C@H]2[C@@H](OS(=O)(=O)O)CC[C@H]3[C@H]1C5` [DM3B6S], the Ki in assay [2] stood at 1600 nM. With `CSCC[C@H](NC(=O)[C@H](Cc1ccccc1)NC(=O)CNC(=O)CNC(=O)[C@@H](N)Cc1ccc(O)cc1)C(=O)O` [2-[(S)-2-(2-{2-[(S)-2-Amino-3-(4-hydroxy-phenyl)-propionylamino]-acetylamino}-acetylamino)-1-oxo-3-phenyl-propylamino]-4-methylsulfanyl-butyric acid], the affinity in assay [1], expressed as Ki, was 277 nM. Take `COc1ccc2c3c1O[C@H]1[C@@H](OS(=O)(=O)O)C=C[C@H]4[C@@H](C2)N(C)CC[C@@]341` [C6S]: the Ki in assay [1] is 455 nM; in assay [2], 414 nM. The like results for `CN1CC[C@]23c4c5ccc(OS(=O)(=O)O)c4O[C@H]2[C@@H](O)C=C[C@H]3[C@H]1C5` [M3S] were, in that order, 1690 nM and over 10000 nM.

As for `CN1CC[C@]23c4c5ccc(O)c4O[C@H]2[C@@H](OS(=O)(=O)O)C=C[C@H]3[C@H]1C5` [M6S], the results for the inhibitory constant (Ki) in assay [1] and in assay [2] were 6.3 nM and 18 nM, respectively. The like results for `CC(=O)Oc1ccc2c3c1O[C@H]1[C@@H](OS(=O)(=O)O)C=C[C@H]4[C@@H](C2)N(C)CC[C@@]341` [M3A6S] were, in that order, 5.5 nM and 154 nM. As for `CC(=O)Oc1ccc2c3c1O[C@H]1[C@@H](OS(=O)(=O)O)CC[C@H]4[C@@H](C2)N(C)CC[C@@]341` [DM3A6S], the Ki in assay [2] was determined as 325 nM. In assay [1], `C[C@@H](NC(=O)[C@@H](N)Cc1ccc(O)cc1)C(=O)NCC(=O)N(C)[C@@H](Cc1ccccc1)C(=O)NCCO` [[tyrosyl-3,5-3H(N)]-D-Ala2-Mephe4-glyol5-enkephalin] yielded a Ki of 27 nM. On to `CN1CC[C@]23c4c5ccc(O)c4O[C@H]2[C@@H](OS(=O)(=O)O)CC[C@H]3[C@H]1C5` [DM6S], for which the Ki in assay [1] was 7 nM; in assay [2], 19 nM. In assay [1], `CC1(C)SSC(C)(C)[C@@H](NC(=O)[C@@H](N)Cc2ccc(O)cc2)C(=O)NCC(=O)N[C@@H](Cc2ccc(Cl)cc2)C(=O)N[C@H]1C(=O)O` [(4S,7S,13S)-13-[(S)-2-Amino-3-(4-hydroxy-phenyl)-propionylamino]-7-(4-chloro-benzyl)-3,3,14,14-tetramethyl-6,9,12-trioxo-1,2-dithia-5,8,11-triaza-cyclotetradecane-4-carboxylic acid] registered a Ki of 1030 nM. `CC(C)C(=O)Oc1ccc2c3c1O[C@H]1[C@@H](OS(=O)(=O)O)C=C[C@H]4[C@@H](C2)N(C)CC[C@@]341` [M3IBu6S]: the Ki in assay [1] came out at 266 nM; in assay [2], 584 nM. Taken in the same sequence, the figures for `CC(=O)Oc1ccc2c3c1O[C@H]1[C@@H](OS(=O)(=O)[O-])C=C[C@H]4[C@@H](C2)[N+](C)(C)CC[C@@]341` [MM3A6S] were 400 nM and 842 nM.

Consider `CN1CC[C@]23c4c5ccc(OC(=O)c6ccccc6)c4O[C@H]2[C@@H](OS(=O)(=O)O)C=C[C@H]3[C@H]1C5` [M3B6S], for which the Ki amounted to 513 nM in assay [1] and 600 nM in assay [2]. `C=CCN1CCC23c4c5ccc(O)c4O[C@@H]2C(=NNC(=O)c2ccccc2)CCC3(O)C1C5` (stereo not given in full) came in with a Ki in assay [1] of 0.3 nM.

Consider `CN1CC[C@]23c4c5ccc(OC(=O)C(C)(C)C)c4O[C@H]2[C@@H](OS(=O)(=O)O)C=C[C@H]3[C@H]1C5` [M3P6S], for which the Ki in assay [1] turned out to be 11 nM; in assay [2], 15 nM.
